What was measured:
PC-3 = assay: Cytotoxicity against human PC3 cells by MTT assay; assay type: functional, cell-based
NCI-H460 = assay: Cytotoxicity against human NCI-H460 cells by MTT assay; assay type: functional, cell-based
Bel-7402 = assay: Cytotoxicity against human Bel7402 cells by MTT assay; assay type: functional, cell-based
BGC-823 = assay: Cytotoxicity against human BGC823 cells by MTT assay; assay type: functional, cell-based
CCRF S-180 [1] = assay: Anticancer activity against mouse S180 cells xenografted in ICR mouse assessed as tumor weight inhibition at 25 mg/kg, ip relative to control; assay type: functional; conditions: CCRF S-180, ip, route intraperitoneal
CCRF S-180 [2] = assay: Anticancer activity against mouse S180 cells xenografted in ICR mouse assessed as tumor weight inhibition at 50 mg/kg, ip relative to control; assay type: functional; conditions: CCRF S-180, ip, route intraperitoneal
CCRF S-180 [3] = assay: Anticancer activity against mouse S180 cells xenografted in ICR mouse assessed as tumor weight inhibition at 100 mg/kg, ip relative to control; conditions: CCRF S-180, ip, read-out: INH

Row | SMILES | IC50 (PC-3) [µM] | IC50 (NCI-H460) [µM] | IC50 (Bel-7402) [µM] | IC50 (BGC-823) [µM] | inhibition in vivo at 25 mg/kg (CCRF S-180 [1]) [%] | inhibition in vivo at 50 mg/kg (CCRF S-180 [2]) [%] | inhibition in vivo at 100 mg/kg (CCRF S-180 [3]) [%]
1 | COc1cccc(/C=C/C(=O)c2sc(Nc3cccc(Cl)c3)nc2C)c1 | > 25 | > 25 | > 25 | – | – | – | –
2 | COc1cccc(/C=C/C(=O)c2sc(Nc3ccc(Cl)cc3)nc2C)c1 | > 25 | > 25 | > 25 | > 25 | – | – | –
3 | Cc1nc(Nc2ccc(Cl)c(Cl)c2)sc1C(=O)/C=C/c1ccc(Cl)cc1 | > 25 | > 25 | > 25 | 22.7 | – | – | –
4 | Cc1nc(Nc2ccccc2)sc1C(=O)/C=C/c1ccc(Cl)cc1 | > 25 | > 25 | > 25 | > 25 | – | – | –
5 | Cc1cccc(Nc2nc(C)c(C(=O)/C=C/c3ccc(Cl)cc3)s2)c1 | > 25 | > 25 | > 25 | > 25 | – | – | –
6 | Cc1nc(Nc2ccc(Cl)cc2)sc1C(=O)/C=C/c1ccc(Cl)cc1 | > 25 | > 25 | > 25 | > 25 | – | – | –
7 | Cc1ccc(Nc2nc(C)c(C(=O)/C=C/c3ccc4c(c3)OCO4)s2)cc1 | > 25 | > 25 | > 25 | > 25 | – | – | –
8 | COc1cc(/C=C/C(=O)c2sc(Nc3cccc(C)c3)nc2C)cc(OC)c1OC | > 25 | 19.8 | > 25 | 17.2 | – | – | –
9 | COc1cc(/C=C/C(=O)c2sc(Nc3ccc(F)c(Cl)c3)nc2C)cc(OC)c1OC | – | 6.31 | – | 9.7 | 23 | 22.6 | –
10 | Cc1nc(Nc2ccc(Cl)c(Cl)c2)sc1C(=O)/C=C/c1ccc2c(c1)OCO2 | > 25 | > 25 | > 25 | > 25 | – | – | –
11 | COc1ccc(/C=C/C(=O)c2sc(Nc3ccc(Cl)c(Cl)c3)nc2C)cc1 | > 25 | > 25 | > 25 | > 25 | – | – | –
12 | COc1ccc(/C=C/C(=O)c2sc(Nc3ccc(Cl)cc3)nc2C)cc1 | > 25 | > 25 | > 25 | > 25 | – | – | –
13 | Cc1ccc(Nc2nc(C)c(C(=O)/C=C/c3ccc(Cl)cc3)s2)cc1 | > 25 | > 25 | > 25 | > 25 | – | – | –
14 | COc1cccc(/C=C/C(=O)c2sc(Nc3ccc(Cl)c(Cl)c3)nc2C)c1 | 10.1 | 20.1 | > 25 | 8.35 | – | – | –
15 | Cc1ccc(Nc2nc(C)c(C(=O)/C=C/c3ccccc3)s2)cc1 | > 25 | > 25 | > 25 | > 25 | – | – | –
16 | Cc1ccccc1Nc1nc(C)c(C(=O)/C=C/c2ccccc2)s1 | > 25 | > 25 | > 25 | > 25 | – | – | –
17 | Cc1nc(Nc2ccc(Cl)cc2)sc1C(=O)/C=C/c1ccccc1 | 24.6 | > 25 | > 25 | > 25 | – | – | –
18 | Cc1nc(Nc2ccccc2)sc1C(=O)/C=C/c1ccccc1Cl | > 25 | > 25 | > 25 | 22.8 | – | – | –
19 | COc1cccc(/C=C/C(=O)c2sc(Nc3cccc(C)c3)nc2C)c1 | > 25 | > 25 | > 25 | > 25 | – | – | –

Row | SMILES | IC50 (PC-3) [µM] | IC50 (NCI-H460) [µM] | IC50 (Bel-7402) [µM] | IC50 (BGC-823) [µM] | inhibition in vivo at 25 mg/kg (CCRF S-180 [1]) [%] | inhibition in vivo at 50 mg/kg (CCRF S-180 [2]) [%] | inhibition in vivo at 100 mg/kg (CCRF S-180 [3]) [%]
20 | Cc1nc(Nc2ccc(Cl)c(Cl)c2)sc1C(=O)/C=C/c1ccccc1 | 7.99 | 22.7 | 21.5 | 10.6 | – | – | –
21 | COc1cc(/C=C/C(=O)c2sc(Nc3ccc(C)cc3)nc2C)cc(OC)c1OC | > 25 | > 25 | > 25 | > 25 | – | – | –
22 | COc1cccc(/C=C/C(=O)c2sc(Nc3ccccc3C)nc2C)c1 | > 25 | > 25 | > 25 | > 25 | – | – | –
23 | COc1cc(/C=C/C(=O)c2sc(Nc3ccc(Cl)cc3)nc2C)cc(OC)c1OC | > 25 | 22 | > 25 | > 25 | – | – | –
24 | COc1cc(/C=C/C(=O)c2sc(Nc3ccccc3)nc2C)cc(OC)c1OC | > 25 | > 25 | > 25 | > 25 | – | – | –
25 | COc1cccc(/C=C/C(=O)c2sc(Nc3ccc(C)cc3)nc2C)c1 | > 25 | > 25 | > 25 | > 25 | – | – | –
26 | Cc1ccc(Nc2nc(C)c(C(=O)/C=C/c3ccccc3Cl)s2)cc1 | > 25 | > 25 | > 25 | > 25 | – | – | –
27 | COc1cc(/C=C/C(=O)c2sc(Nc3cccc(Cl)c3)nc2C)cc(OC)c1OC | > 25 | > 25 | 14 | 11.6 | – | – | –
28 | Cc1ccccc1Nc1nc(C)c(C(=O)/C=C/c2ccccc2Cl)s1 | > 25 | > 25 | > 25 | > 25 | – | – | –
29 | Cc1nc(Nc2ccccc2)sc1C(=O)/C=C/c1ccccc1 | > 25 | > 25 | > 25 | 19.5 | – | – | –
30 | COc1cc(/C=C/C(=O)c2sc(Nc3ccc(Cl)c(Cl)c3)nc2C)cc(OC)c1OC | 19.3 | > 25 | > 25 | > 25 | – | 25.1 | –
31 | O=P1(N(CCCl)CCCl)NCCCO1 (centres undefined) [CYCLOPHOSPHAMIDE ANHYDROUS] | – | – | – | – | – | – | 91.7
32 | COc1cccc(/C=C/C(=O)c2sc(Nc3ccccc3)nc2C)c1 | > 25 | > 25 | > 25 | 14.3 | – | – | –
33 | Cc1nc(Nc2cccc(Cl)c2)sc1C(=O)/C=C/c1ccc(Cl)cc1 | > 25 | > 25 | > 25 | > 25 | – | – | –
34 | Cc1ccccc1Nc1nc(C)c(C(=O)/C=C/c2ccc(Cl)cc2)s1 | > 25 | > 25 | > 25 | > 25 | – | – | –
35 | COc1cc(/C=C/C(=O)c2sc(Nc3ccccc3C)nc2C)cc(OC)c1OC | > 25 | 6.32 | 10.3 | 5.4 | – | – | –
36 | Cc1cccc(Nc2nc(C)c(C(=O)/C=C/c3ccccc3Cl)s2)c1 | 22.2 | > 25 | > 25 | 24.2 | – | – | –
37 | Cc1nc(Nc2cccc(Cl)c2)sc1C(=O)/C=C/c1ccccc1 | > 25 | > 25 | > 25 | > 25 | – | – | –
38 | Cc1cccc(Nc2nc(C)c(C(=O)/C=C/c3ccccc3)s2)c1 | 11.7 | 21.8 | > 25 | 13.6 | – | – | –

Reference: ChEMBL document CHEMBL1268940, “Synthesis and anticancer evaluation of thiazolyl-chalcones” (Bioorg Med Chem Lett, 2010)
